For 3 molecules, remaining activity results are on record in US20100063085A1, “METHOD OF TREATING LEARNING IMPAIRMENT IN DOWN'S SYNDROME SUBJECTS” (University Court of The University of Dundee, priority 2008, published 2010).

Each structure is given as a SMILES string. Where two headings read alike, the source gives them in different places.

One assay deals with T1, PKD1 (Homo sapiens, UniProt Q15139).
T1 sequence (Q15139 1-912): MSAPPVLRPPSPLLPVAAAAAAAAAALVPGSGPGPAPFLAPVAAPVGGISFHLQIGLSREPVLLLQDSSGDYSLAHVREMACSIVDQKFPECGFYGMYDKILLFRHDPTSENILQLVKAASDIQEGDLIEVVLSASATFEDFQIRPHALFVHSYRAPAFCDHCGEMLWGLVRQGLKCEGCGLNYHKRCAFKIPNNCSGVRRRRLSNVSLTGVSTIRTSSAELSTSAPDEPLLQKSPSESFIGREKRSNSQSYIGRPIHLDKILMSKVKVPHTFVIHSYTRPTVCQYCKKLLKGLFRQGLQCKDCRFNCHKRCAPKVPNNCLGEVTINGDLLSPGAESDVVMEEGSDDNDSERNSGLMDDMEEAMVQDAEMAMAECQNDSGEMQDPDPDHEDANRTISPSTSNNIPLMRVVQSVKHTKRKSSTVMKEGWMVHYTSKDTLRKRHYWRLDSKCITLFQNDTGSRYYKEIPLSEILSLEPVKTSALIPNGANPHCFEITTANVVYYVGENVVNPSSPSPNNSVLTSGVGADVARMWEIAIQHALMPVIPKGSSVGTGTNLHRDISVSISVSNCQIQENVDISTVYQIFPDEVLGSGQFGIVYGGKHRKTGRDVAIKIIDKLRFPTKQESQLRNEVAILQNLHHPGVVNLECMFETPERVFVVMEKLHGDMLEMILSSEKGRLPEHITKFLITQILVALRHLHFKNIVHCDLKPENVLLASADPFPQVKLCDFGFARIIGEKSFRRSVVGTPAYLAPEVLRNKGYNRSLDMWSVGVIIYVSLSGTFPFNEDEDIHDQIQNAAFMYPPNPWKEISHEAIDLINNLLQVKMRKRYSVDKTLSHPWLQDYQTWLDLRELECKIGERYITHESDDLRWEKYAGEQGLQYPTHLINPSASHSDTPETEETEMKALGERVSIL
The assay can be described thus: PKD1 33P kinase assay. The assay is classed as biochemical. The settings on record: read-out: PKD1 activity as percentage of control without inhibitor. Here is the method:
(§1) All assays (25.5 μl) were carried out at room temperature (21° C.) and were linear with respect to time and enzyme concentrations under the conditions used. Assays were performed for 30 minutes except assays for LCK and PKB which were performed for 15 minutes using Multidrop Micro reagent dispensers (Thermo Electron Corporation, Waltham, Mass. 02454, USA) in a 96-well format. The concentration of […] [γ-^33P] ATP (800 cpm/pmol) in the assays was one of three concentrations (5, 20 or 50 μM) in order to be at or below Km for ATP for the enzyme. Assays were initiated with MgATP and stopped by addition of 5 μl of 0.5M orthophosphoric acid. Assays were then harvested onto P81 filterplates using a unifilter harvester (PerkinElmer, Boston, Mass. 02118, USA), with a wash buffer of 50 mM orthophosphoric acid. Filterplates were then air dried overnight. 10 μl of Microscint O was added per well prior to counting for radioactivity.
The following kinases were assayed against the substrates indicated. Aurora B was assayed against the substrate peptide […] (300 μM), ERK8 and MST-2 were both assayed against MBP (0.33 mg/ml). IKKβ was assayed against the substrate peptide […] (300 μM), JNK3 was assayed against 3 μM ATF2[19-96]. MAPKAP-K3 and PKD1 were both assayed against […] (30 μM), MARK3 was assayed against CHKtide ([…]) substrate peptide (300 μM). MNK1 and MNK2 were both assayed against eIF4E protein (0.5 mg/ml). NEK7 was assayed against […] (300 μM), PIM2 was assayed against […] (300 μM), ΔPH PKBβ-S474D was assayed against Crosstide (30 μM), PLK1 was assayed against […] (300 μM). PRK2 was assayed against Long S6 peptide, […] (30 μM), RSK2 was assayed against […] (30 μM), SRC was assayed against cdc2 peptide, […], (300 μM) and SRPK1 was assayed against peptide […] (300 μM). All enzymes were diluted in 50 mM Tris/HCl pH 7.5, 0.1 mM EGTA, 1 mg/ml BSA, 0.1% β-mercaptoethanol buffer and assayed in an incubation containing 50 mM Tris/HCl pH7.5, 0.1 mM EGTA, 0.1% β-mercaptoethanol, CAMK-1 (5-20 mU) diluted in 50 mM Tris/HCl pH 7.5, 0.1 mM EGTA, 1 mg/ml BSA, 0.1% β-mercaptoethanol is assayed against substrate peptide […] in an incubation containing 50 mM Tris/HCl pH 7.5, 0.1 mM EGTA, 0.5 mM CaCl2, 0.3 μM calmodulin, 0.1% β-mereaptoethanol, 300 μM substrate peptide, 10 mM magnesium acetate and 0.05 mM [^33P-γ-ATP] (500-1000 cpm/pmole). EF2K (5-20 mU) diluted in 50 mM Hepes pH 6.6, 0.1% β-mercaptoethanol, 1 mg/ml BSA is assayed against a substrate peptide […] in an incubation containing 50 mM Hepes pH 6.6, 0.2 mM CaCl2, 0.3 μM Calmodulin, 0.05% b-mercaptoethanol, 300 μM substrate peptide, 10 mM magnesium acetate and 0.05 mM [^33P-γ-ATP] (500-1000 cpm/pmole).

Another assay concerns the target MAPK2/ERK2 (Homo sapiens, UniProt P28482). The assay can be described thus: MAPK2/ERK2 33P kinase assay. The assay is classed as biochemical. To be noted: read-out: MAPK2/ERK2 activity as percentage of control without inhibitor. Here is the method: as §1
MKK1, JNK/SAPK1c, SAPK2a/p38, SAPK2b/p38β2, SAPK3/p38γ, SAPK4/p38δ, MAPK2/ERK2, MAPKAP-K1β, MAPKAP-K2, MSK1, PRAK, PKA, PKCα, PDK1, SGK, p70S6K, GSK3β, ROCK-II, PRK2, AMPK, CHK1, CHK2, CK2, PHK, LCK, were assayed according to Davies et al., (Davies, S. P., Reddy, H., Caivano, M. and Cohen, P. Biochem. J. 351, 95-105, 2000.
CSK and CDK2/cyclinA, were assayed according to Bain et al. (Bain J, McLauchlan H, Elliott M, Cohen P. Biochem J. 371, 199-204, 2003., except that ATP concentrations were either 5, 20 or 50 micromolar so that they were at or below the Km for ATP. The ATP concentrations used were as follows, 5 μM for assays of MKK1, SAPK3, SAPK4, GSK3β, PRK2 CK2 20 μm for assays of JNK, SAPK2β, MAPKAP-K2, MSK1, PRAK, PKA, […], PDK1, SGK, p70S6K, ROCK-II, CHK1, CHK2, CSK, CDK2, and 50 μM for assays of SAPK2a, MAPK2/ERK2, AMPK, LCK, PHK and MAPKAP-K1β.

Sequence of MAPK2/ERK2 (P28482 whole entry): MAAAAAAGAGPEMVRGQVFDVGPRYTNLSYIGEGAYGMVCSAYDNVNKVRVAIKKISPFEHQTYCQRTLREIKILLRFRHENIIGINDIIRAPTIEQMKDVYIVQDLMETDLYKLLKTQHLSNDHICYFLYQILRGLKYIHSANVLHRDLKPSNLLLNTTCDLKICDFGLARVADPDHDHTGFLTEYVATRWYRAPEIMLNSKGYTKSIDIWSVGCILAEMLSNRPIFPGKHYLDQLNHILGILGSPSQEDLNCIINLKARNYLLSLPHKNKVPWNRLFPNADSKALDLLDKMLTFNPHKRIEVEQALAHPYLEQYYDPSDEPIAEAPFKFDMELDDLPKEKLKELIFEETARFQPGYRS

Regarding `COc1ccc2c3c([nH]c2c1)C(C)=NCC3` [Harmaline], the remaining activity at 1 µM was 99% at PKD1 (inhibitor 1 μM) and 80% on MAPK2/ERK2 (inhibitor 1 μM). For the same molecule, the remaining activity at 10 µM at PKD1 (inhibitor 10 μM) amounted to 101%; at MAPK2/ERK2 (inhibitor 10 μM), 89%.
The corresponding values for `CC1=NCCc2c1[nH]c1cc(O)ccc21` [Harmalol] are 75%, 88%, 21% and 85%.
Turning to `COc1ccc2c(c1)[nH]c1c(C)nccc12` [Harmine], on PKD1, the remaining activity at 1 µM was 86% and the remaining activity at 10 µM turned out to be 53%. Moreover, on MAPK2/ERK2, the remaining activity at 1 µM came out at 98% and the remaining activity at 10 µM amounted to 89%.
